Biological target: T1, human S1P1 receptor (Homo sapiens, UniProt P21453)
T1 construct: expressed in transfected cells; membranes used
Assay: GTP γ35S binding assay for S1P1 activity
Assay type: biochemical
Settings: activity potency, S1P1 receptor from GTP γ35S binding; membranes, 30 min at 25° C.
Description: Compounds were synthesized and tested for S1P1 activity using the GTP γ^35S binding assay. These compounds may be assessed for their ability to activate or block activation of the human S1P1 receptor in cells stably expressing the S1P1 receptor.
GTP γ^35S binding was measured in the medium containing (mM) HEPES 25, pH 7.4, MgCl2 10, NaCl 100, dithitothreitol 0.5, digitonin 0.003%, 0.2 nM GTP γ^35S, and 5 μg membrane protein in a volume of 150 μl. Test compounds were included in the concentration range from 0.08 to 5,000 nM unless indicated otherwise. Membranes were incubated with 100 μM 5′-adenylylimmidodiphosphate for 30 min, and subsequently with 10 μM GDP for 10 min on ice. Drug solutions and membrane were mixed, and then reactions were initiated by adding GTP γ^35S and continued for 30 min at 25° C. Reaction mixtures were filtered over Whatman GF/B filters under vacuum, and washed three times with 3 mL of ice-cold buffer (HEPES 25, pH7.4, MgCl2 10 and NaCl 100). Filters were dried and mixed with scintillant, and counted for ^35S activity using a β-counter. Agonist-induced GTP γ^35S binding was obtained by subtracting that in the absence of agonist. Binding data were analyzed using a non-linear regression method. In case of antagonist assay, the reaction mixture contained 10 nM S1P in the presence of test antagonist at concentrations ranging from 0.08 to 5000 nM.

T1 sequence (P21453 whole entry): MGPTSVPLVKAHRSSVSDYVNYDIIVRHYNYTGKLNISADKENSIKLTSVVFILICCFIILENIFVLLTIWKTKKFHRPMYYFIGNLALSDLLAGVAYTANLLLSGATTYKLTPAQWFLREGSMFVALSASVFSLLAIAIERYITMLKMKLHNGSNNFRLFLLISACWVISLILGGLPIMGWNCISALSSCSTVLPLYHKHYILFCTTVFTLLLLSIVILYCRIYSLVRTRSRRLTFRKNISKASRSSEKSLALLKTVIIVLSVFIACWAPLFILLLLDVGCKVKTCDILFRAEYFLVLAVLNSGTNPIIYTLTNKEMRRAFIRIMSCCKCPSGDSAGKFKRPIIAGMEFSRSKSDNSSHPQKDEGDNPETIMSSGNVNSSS

Row | SMILES | EC50 [nM]
1 | CC(C)Oc1ccc(-c2nc(-c3ccc(CNCCCP(=O)(O)O)cc3)no2)cc1C(F)(F)F [Compound 1, {3-[(4-{5-[4-isopropoxy-3-(trifluoromethyl)phenyl]-1,2,4-oxadiazol-3-yl}benzyl)amino]propyl}phosphonic acid] | 3.14
2 | CC(C)Oc1ccc(-c2nc(-c3ccc(CNCCCP(=O)(O)O)cc3)no2)cc1Br [Compound 2, [3-({4-[5-(3-bromo-4-isopropoxyphenyl)-1,2,4-oxadiazol-3-yl]benzyl}amino)propyl]phosphonic acid] | 3.1
3 | CC(C)Cc1ccc(-c2nc(-c3ccc(CNCCCP(=O)(O)O)cc3)no2)cc1 [Compound 3, (3-{4-[5-(4-Isobutyl-phenyl)-[1,2,4]oxadiazol-3-yl]-benzylamino}-propyl)-phosphonic acid] | 1.78
